Assay results from patent publication US6372937B1, “Enhanced catalyzed reporter deposition” (priority 1998, dated 2002).

Assays:
HRP [1] = target: T1, HRP (Armoracia rusticana, UniProt P00433); details: cited from earlier work
T1 sequence (P00433 31-338): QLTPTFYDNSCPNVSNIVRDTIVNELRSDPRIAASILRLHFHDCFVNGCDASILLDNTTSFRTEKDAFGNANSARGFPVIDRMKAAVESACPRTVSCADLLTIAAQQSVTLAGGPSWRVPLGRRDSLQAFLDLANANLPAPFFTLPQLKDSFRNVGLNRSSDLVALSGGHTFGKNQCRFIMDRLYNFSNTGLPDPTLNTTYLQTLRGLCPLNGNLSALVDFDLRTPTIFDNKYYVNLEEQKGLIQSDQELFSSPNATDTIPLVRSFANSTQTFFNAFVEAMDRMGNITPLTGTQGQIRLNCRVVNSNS

HRP [2] = target: T1, HRP; test: Enhanced CARD detection using fluorescein tyramide on human prostate tissue slides; assay type: biochemical, horseradish
Experimental: Human prostate tissue slides (Dako) were deparaffinized and blocked for thirty minutes with TNB Blocking Buffer (TSA Direct Green kit, NEN Life Science Products). Rabbit anti-human prostate specific antigen (Dako) diluted 1/10,000 in TNB buffer was incubated for one hour at room temperature. The slides were washed in TNT buffer (TSA Direct Green kit) and then incubated with an anti-rabbit IgG-HRP conjugate (Roche) diluted 1/1000 in TNB buffer for one hour at room temperature. Standard CARD detection was performed using the TSA Direct Green kit, which utilizes fluorescein tyramide. Organic enhanced CARD detection was performed using the TSA Direct Green kit and adding p-iodophenyl boronic acid (structure 2) at a 20:1 (w/w) ratio to the fluorescein tyramide reagent. Organic and salt enhanced CARD detection was performed using the TSA Direct Green kit, adding p-iodophenyl boronic acid (structure 2) at a 20:1 (w/w) ratio to the fluorescein tyramide reagent and adding NaCl to the diluent to a final concentration of 2M. The slides were washed in TNT buffer, mounted with mounting medium and a coverslip.

HRP [3] = target: T1, HRP; test: Enhanced CARD detection using cyanine 3 tyramide on human prostate tissue slides; assay type: biochemical, horseradish
Experimental: Human prostate tissue slides (Dako Corp., Carpinteria, Calif.) were deparaffinized and blocked for thirty minutes with TNB Blocking Buffer (TSA Direct Cyanine 3 kit, NEN Life Science Products, Boston, Mass.). Rabbit anti-human prostate specific antigen (Dako) diluted 1/40,000 in TNB buffer was incubated for one hour at room temperature. The slides were washed in TNT buffer (TSA Direct Cyanine 3 kit) and then incubated with an anti-rabbit IgG-HRP conjugate (Roche Molecular Biochemicals, Indianapolis, Ind.) diluted 1/1000 in TNB buffer for one hour at room temperature. Standard CARD detection was performed using the TSA Direct Cyanine 3 kit. Organic enhanced CARD detection was performed using the TSA Direct Cyanine 3 kit and adding p-iodophenyl boronic acid (structure 2) at a 20:1 (w/w) ratio to the cyanine 3 tyramide reagent. Organic and salt enhanced CARD detection was performed using the TSA Direct Cyanine 3 kit, adding p-iodophenyl boronic acid (structure 2) at a 20:1 (w/w) ratio to the cyanine 3 tyramide reagent and adding NaCl to the diluent to a final concentration of 2M. The slides were washed in TNT buffer, mounted with mounting medium and a coverslip.

HRP [4] = target: T1, HRP; test: Enhanced CARD detection using biotinyl tyramide on human prostate tissue slides; assay type: biochemical, horseradish; details: enhancer at 20:1 (w/w) plus NaCl 2M, Streptavidin-HRP/diaminobenzidine readout
Experimental: Human prostate tissue slides (Dako) were deparaffinized and blocked for thirty minutes with TNB Blocking Buffer (TSA Indirect kit, NEN Life Science Products). Rabbit anti-human prostate specific antigen (Dako) diluted 1/100,000 in TNB buffer was incubated for one hour at room temperature. The slides were washed in TNT buffer (TSA Indirect kit) and then incubated with an anti-rabbit IgG-HRP conjugate (Roche) diluted 1/1000 in TNB buffer for one hour at room temperature.
Standard CARD detection was performed using the TSA Indirect kit, which utilizes biotinyl tyramide. Organic and salt enhanced CARD detection was performed using the TSA Indirect kit, adding N-(5-hydroxypentyl)-3-(p-hydroxyphcnyl)propionamide (structure 1) at a 20:1 (w/w) ratio to the biotinyl tyramide reagent and adding NaCl to the diluent to a final concentration of 2M. The slides were washed in TNT buffer, and Streptavidin-HRP (TSA Indirect kit) diluted 1/100 in TNB buffer was incubated for thirty minutes at room temperature. The slides were washed in TNT buffer and diaminobenzidine (NEN Life Science Products) was added and incubated for three minutes at room temperature. The slides were washed with water, and counterstained with Hematoxylin. The slides were then washed with water, phosphate buffered saline, water, dehydrated and mounted.

[5] = NaCl 2M in diluent added to p-iodophenyl boronic acid 20:1 (w/w)
[6] = enhancer at 20:1 (w/w) ratio to tyramide reagent

c1c[nH]cn1 [imidazole]
effect on the oxidation of 4-chloro-1-naphthol (HRP [1]; substrate 4-chloro-1-naphthol): no effect | enhancement of the oxidation of p-phenylenediamine-pyrocatechol (HRP [1]; substrate combination p-phenylenediamine-pyrocatechol): two fold | enhancement of the oxidation of diaminobenzidine (HRP [1]; substrate diaminobenzidine): approximately four fold

[Cl-].[Na+] [NaCl]
addition of salt to the organic enhanced CARD detection (FIG. 2B compared to FIG. 2C) (HRP [2]; [5]): very dramatic improvement | addition of salt to the organic enhanced CARD detection (FIG. 1B compared to FIG. 1C) (HRP [3]; [5]): significant improvement

OB(O)c1ccc(I)cc1 [p-iodophenyl boronic acid]
organic enhanced vs standard CARD detection (FIG. 2A compared to FIG. 2B) (HRP [2]; [6]): significant difference | organic enhanced vs standard CARD detection (FIG. 1A compared to FIG. 1B) (HRP [3]; [6]): very dramatic difference

O=C(CCc1ccc(O)cc1)NCCCCCO [N-(5-hydroxypentyl)-3-(p-hydroxyphcnyl)propionamide]
organic and salt enhanced vs standard CARD detection (FIG. 3A compared to FIG. 3B) (HRP [4]): striking difference
